Results reported in ChEMBL document CHEMBL1142282, “Asymmetric synthesis and stereochemical structure-activity relationship of (R)- and (S)-8-[1-(2,4-dichlorophenyl)-2-imidazol-1-yl-ethoxy] octanoic acid heptyl ester, a potent inhibitor of allene oxide synthase” (Bioorg Med Chem, 2008).

How the values were obtained:
[1] = Inhibition of arabidopsis recombinant allene oxide synthase; conditions: read-out: I50
[2] = Binding affinity at arabidopsis recombinant allene oxide synthase
[3] = test system: Arabidopsis; experiment: Inhibition of arabidopsis recombinant allene oxide synthase at 1 uM

SMILES	IC50 [1] [nM]	Kd [2] [nM]	inhibition [3] [%]
CCCCCCCOC(=O)CCCCCCCO[C@@H](Cn1ccnc1)c1ccc(Cl)cc1Cl	5	1400	93
CCCCCCCOC(=O)CCCCCCCO[C@H](Cn1ccnc1)c1ccc(Cl)cc1Cl	950	4800	50
